Assay results taken from US10913757B2, “Hydroxycinnamic derivatives, methods and uses thereof” (UNIVERSIDADE DO PORTO, priority 2016, dated 2021).

Legend:
[1] = GO radical scavenging activity (TAC assay); format: biochemical; details: ethanol, absorbance 428 nm
From the text: In an embodiment, the AntiOxCINs antioxidant ranking activity hierarchy was established by in vitro non-cell methods. The selected total antioxidant capacity (TAC) assays (DPPH, ABTS and GO) involved the spectrophotometric measurement of the radical absorbance decrease as a result of an in situ radical deactivation by an antioxidant. Compounds with higher antioxidant activity display lower IC50 values. […] This decrease was attenuated/ameliorated by the increment of the spacer length and/or the introduction of additional hydroxyl group in the aromatic ring.
The radical scavenging activity of AntiOxCINs was evaluated by means of total antioxidant capacity assays based on DPPH., ABTS.^+ and GO. radicals. All these methods involved the spectrophotometric measurement of the absorbance decrease resulting from radical (DPPH., ABTS.^+ or GO.) deactivation with an antioxidant. The results were expressed in IC50, which is defined as the minimum antioxidant concentration necessary to reduce the amount of radical by 50%. Antioxidant assays were performed in a multiplate reader (Powerwave XS Microplate Reader) of Bio-Tech instruments.
In an embodiment, the GO′ scavenging activity was evaluated as follows: solutions of test compounds with concentrations from 5 μM to 75 μM were prepared in ethanol. An ethanolic solution of 5 mM GO′ was prepared and diluted to reach the absorbance of 1.00±0.02 at 428 nm. The addition (20 μL) in triplicate of compound solution to GO. solution (180 μL) was followed by absorbance measurement at 428 nm over 30 minutes, in the dark, at room temperature. […] Dose-response curves were established for the determination of IC50 values. Data are means±SEM of three independent experiments.

[2] = Lipophilic properties by electrochemistry at ITIES (transfer potential); format: physicochemical; details: aqueous phase to 1,6-dichlorohexane, DPV, C=0.32 mM
Experimental: In an embodiment, AntiOxCINs lipophilic properties were evaluated at physiological pH by electrochemistry. The used technique is often used to mimic the transfer of ionic drugs through biological membranes as the process occurs at the interface between two immiscible electrolyte solutions (ITIES). The transfer potential (Etr) at which the ionic drug, initially present in the aqueous phase (C=0.32 mM), is transferred to the 1,6-dichlorohexane (DCH) phase is measured by differential pulse voltammetry (DPV). In the ITIES model, the transfer potential (Etr) becomes less positive with the increasing of the drug lipophilic character.
In an embodiment, the electrochemical analytical data was obtained using a computer controlled potentiostat Autolab PGSTAT302N (Metrohm Autolab, Utrecht, Netherlands). Generally, cyclic voltammetry (CV) data was acquired at a scan rate of 50 mVs^−1. Differential pulse voltammetry (DPV) results were acquired at a step potential of 4 mV, pulse amplitude of 50 mV and scan rate of 8 mVs^−1. The electrochemical signals were monitored by the General Purpose Electrochemical System (GPES) version 4.9, software package. All electrochemical experiments were performed at room temperature in an electrochemical cell that was placed in a Faraday cage in order to minimize the contribution of background noise to the analytical signal.
In an embodiment, the process of evaluation of AntiOxCINs redox properties was conducted as follows: stock solutions of each compound (10 mM) were prepared by dissolving the appropriate amount in ethanol. The voltammetric working solutions were prepared in the electrochemical cell, at a final concentration of 0.1 mM. The […] supporting electrolyte was prepared by diluting […] to 100 mL. Voltammetric data was acquired in a three-electrode system consisting of a glassy carbon electrode (GCE, d=2 mm) as working electrode, a counter electrode of platinum wire and a saturated Ag/AgCl reference electrode. In an embodiment, the evaluation of AntiOxCINs lipophilic properties was performed as follows: the electrochemical cell was a four-electrode system with arrays of micro liquid-liquid interfaces (μlTIES) containing two Ag/AgCl reference electrodes and two counter electrodes of Pt, one in each phase. The microporous membrane was sealed with a fluorosilicone sealant (Dow Corning 730) onto a glass cylinder which was filled with 4.0 mL of the aqueous phase, where the aliquots of AntiOxCINs solutions were added. The membrane was then immersed into the organic phase contained in the cell. The organic phase reference solution (a 2 mM BTPPACI+2 mM NaCl aqueous solution) was mechanically stabilized The aqueous supporting electrolyte solution was a Tris-HCl buffer 10 mM pH 7.0.

[3] = system: rat liver mitochondria (RLM); experiment: Mitochondrial transmembrane electric potential (ΔΨ) of RLM, safranine fluorescence; format: biochemical; details: for ΔΨ in succinate-energized mitochondria: AntiOxCIN6 above 5 μM, AntiOxCIN7 10 μM
Experimental: In an embodiment, and as an example, AntiOxCINs and MitoQ toxicity effects on the mitochondrial bioenergetics, namely on RLM ΔΨ and mitochondrial respiration parameters, were measured. The […] represents the main component of the electrochemical gradient generated by mitochondrial respiration and accounts for more than 90% of the total available energy. For mitochondrial respiration assays, glutamate/malate (for complex I) and succinate (for complex II) were used as substrates. In addition, the mitochondrial oxidative phosphorylation coupling index, known as respiratory control ratio (RCR, state 3/state 4 respiration) and ADP/O index (the coupling between ATP synthesis and oxygen consumption) were also calculated. AntiOxCINs and MitoQ were tested at antioxidant-relevant concentrations, with 10 μM being the highest concentration.
In an embodiment, the evaluation of AntiOxCINs functional mitochondrial toxicity profile was performed in rat liver mitochondria (RLM). […] The protein concentration was determined by the biuret assay using BSA as a standard.
Then, 1 μM FCCP was added at the end of all experiments to depolarize mitochondria. ΔΨ was calculated using a calibration curve obtained when RLM were incubated in a K^+-free reaction medium containing 200 mM sucrose, 1 mM NaH2PO4, 10 mM Tris (pH 7.4) and 10 μM EGTA, supplemented with 0.4 μg valinomicin. […] “Repolarization” corresponded to the recovery of membrane potential after the complete phosphorylation of ADP added. Lag phase reflected the time required to phosphorylate the added ADP. […] Data are means±SEM of five independent experiments.

Structure (SMILES)	IC50 [1] [µM]	Etr (transfer potential) [2] [V]	ADP-induced depolarization (ΔΨ in - mV) ([3]; glutamate/malate, 2.5 μM) [mV]	Lag Phase ([3]; glutamate/malate, 2.5 μM) [s]	Maximum potential (ΔΨ in - mV) ([3]; glutamate/malate, 2.5 μM) [mV]	Repolarization Potential (ΔΨ in - mV) ([3]; glutamate/malate, 2.5 μM) [mV]	ADP-induced depolarization (ΔΨ in - mV) ([3]; glutamate/malate, 5 μM) [mV]	Lag Phase ([3]; glutamate/malate, 5 μM) [s]	Maximum potential (ΔΨ in - mV) ([3]; glutamate/malate, 5 μM) [mV]	Repolarization Potential (ΔΨ in - mV) ([3]; glutamate/malate, 5 μM) [mV]	ADP-induced depolarization (ΔΨ in - mV) ([3]; glutamate/malate, 10 μM) [mV]	Lag Phase ([3]; glutamate/malate, 10 μM) [s]	Maximum potential (ΔΨ in - mV) ([3]; glutamate/malate, 10 μM) [mV]	Repolarization Potential (ΔΨ in - mV) ([3]; glutamate/malate, 10 μM) [mV]	ADP-induced depolarization (ΔΨ in - mV) ([3]; succinate, 2.5 μM) [mV]	Lag Phase ([3]; succinate, 2.5 μM) [s]	Maximum potential (ΔΨ in - mV) ([3]; succinate, 2.5 μM) [mV]	Repolarization Potential (ΔΨ in - mV) ([3]; succinate, 2.5 μM) [mV]	ADP-induced depolarization (ΔΨ in - mV) ([3]; succinate, 5 μM) [mV]	Lag Phase ([3]; succinate, 5 μM) [s]	further results
O=C(O)/C=C/c1ccc(O)c(O)c1 [Caffeic acid, caffeic acid, reference compound]	3.4																				
CS(=O)(=O)[O-].O=C(/C=C/c1ccc(O)c(O)c1)NCCCCCC[P+](c1ccccc1)(c1ccccc1)c1ccccc1 [AntiOxCIN2, (E)-(6-(3-(3,4-dihydroxyphenyl)prop-2-enamido)hexyl)triphenylphosphonium methanesulfonate]	4.1	0.396	186.2 ± 8.9	81.2 ± 7.2	208.4 ± 10.1	205.1 ± 9.0	199.2 ± 13.3	79.5 ± 7.0	214.8 ± 11.7	214.0 ± 12.5	193.3 ± 9.1	88.7 ± 25.1	209.8 ± 9.4	202.0 ± 8.0	169.3 ± 4.0	101.2 ± 7.5	190.5 ± 5.9	191.5 ± 7.5	174.9 ± 5.5	64.6 ± 19.4	Maximum potential (ΔΨ in - mV) ([3]; succinate, 5 μM): 189.7 ± 8.0 mV; Repolarization Potential (ΔΨ in - mV) ([3]; succinate, 5 μM): 189.5 ± 9.0 mV; ADP-induced depolarization (ΔΨ in - mV) ([3]; succinate, 10 μM): 178.7 ± 6.3 mV; Lag Phase ([3]; succinate, 10 μM): 46.2 ± 12.4 s; Maximum potential (ΔΨ in - mV) ([3]; succinate, 10 μM): 190.0 ± 6.3 mV; Repolarization Potential (ΔΨ in - mV) ([3]; succinate, 10 μM): 186.6 ± 7.1 mV
CS(=O)(=O)[O-].O=C(/C=C/c1cc(O)c(O)c(O)c1)NCCCCCC[P+](c1ccccc1)(c1ccccc1)c1ccccc1 [AntiOxCIN4, (E)-(6-(3-(3,4,5-trihydroxyphenyl)prop-2-enamido)hexyl)triphenylphosphonium methanesulfonate]	3.1	0.498	188.5 ± 9.6	84.7 ± 7.0	214.6 ± 10.9	211.8 ± 10.1	193.8 ± 11.8	81.7 ± 6.7	216.4 ± 13.1	216.1 ± 12.7	192.7 ± 14.4	65.7 ± 15.1	216.8 ± 15.7	207.7 ± 15.6	171.2 ± 3.7	95.6 ± 7.5	192.0 ± 4.0	192.7 ± 5.4	176.2 ± 5.0	97.8 ± 18.8	Maximum potential (ΔΨ in - mV) ([3]; succinate, 5 μM): 197.6 ± 6.1 mV; Repolarization Potential (ΔΨ in - mV) ([3]; succinate, 5 μM): 195.4 ± 8.2 mV; ADP-induced depolarization (ΔΨ in - mV) ([3]; succinate, 10 μM): 170.3 ± 5.2 mV; Lag Phase ([3]; succinate, 10 μM): 101.4 ± 23.75 s; Maximum potential (ΔΨ in - mV) ([3]; succinate, 10 μM): 187.4 ± 8.5 mV; Repolarization Potential (ΔΨ in - mV) ([3]; succinate, 10 μM): 183.5 ± 10.5 mV
CS(=O)(=O)[O-].O=C(/C=C/c1cc(O)c(O)c(O)c1)NCCCCCCCCCC[P+](c1ccccc1)(c1ccccc1)c1ccccc1 [AntiOxCIN7, (E)-(10-(3-(3,4,5-trihydroxyphenyl)acrylamido)decyl)triphenylphosphonium methanesulfonate]	2.5	0.377	212.2 ± 7.9	73.4 ± 8.4	251.8 ± 8.7	248.3 ± 8.3	212.6 ± 3.2	71.0 ± 10.7	248.1 ± 3.3	243.5 ± 5.0	197.1 ± 11.8	58.6 ± 5.4	232.1 ± 9.2	212.6 ± 18.4	183.8 ± 6.0	80.0 ± 14.9	205.3 ± 7.3	199.4 ± 7.1	176.2 ± 8.7	76.0 ± 9.6	initial slight hyperpolarization ([3]; 2.5 μM): 25 mV; ΔΨ in succinate-energized mitochondria [3]: significant decrease of ΔΨ; Maximum potential (ΔΨ in - mV) ([3]; succinate, 5 μM): 191.1 ± 9.0 mV; Repolarization Potential (ΔΨ in - mV) ([3]; succinate, 5 μM): 186.8 ± 7.5 mV; ADP-induced depolarization (ΔΨ in - mV) ([3]; succinate, 10 μM): 163.6 ± 3.2 mV; Lag Phase ([3]; succinate, 10 μM): 65.0 ± 8.7 s; Maximum potential (ΔΨ in - mV) ([3]; succinate, 10 μM): 176.9 ± 3.1 mV; Repolarization Potential (ΔΨ in - mV) ([3]; succinate, 10 μM): 171.0 ± 5.0 mV
CS(=O)(=O)[O-].O=C(/C=C/c1ccc(O)c(O)c1)NCCCCCCCCCC[P+](c1ccccc1)(c1ccccc1)c1ccccc1 [AntiOxCIN6, (E)-(10-(3-(3,4-dihydroxyphenyl)acrylamido)decyl)triphenylphosphonium methanesulfonate]	2.7	0.291	202.5 ± 5.7	73.2 ± 8.8	237.9 ± 5.9	233.3 ± 6.5	197.9 ± 5.0	75.2 ± 12.5	227.5 ± 6.5	220.7 ± 6.2	174.2 ± 16.8	47.8 ± 8.7	200.5 ± 16.80	185.3 ± 20.8	166.8 ± 6.1	77.8 ± 11.2	181.9 ± 6.2	177.7 ± 4.5	167.1 ± 5.7	83.4 ± 11.5	initial slight hyperpolarization ([3]; 2.5 μM): 10 mV; ΔΨ in succinate-energized mitochondria [3]: significant decrease of ΔΨ; Maximum potential (ΔΨ in - mV) ([3]; succinate, 5 μM): 178.3 ± 4.7 mV; Repolarization Potential (ΔΨ in - mV) ([3]; succinate, 5 μM): 178.1 ± 5.1 mV; ADP-induced depolarization (ΔΨ in - mV) ([3]; succinate, 10 μM): 143.6 ± 11.0 mV; Lag Phase ([3]; succinate, 10 μM): 62.2 ± 11.2 s; Maximum potential (ΔΨ in - mV) ([3]; succinate, 10 μM): 151.7 ± 9.3 mV; Repolarization Potential (ΔΨ in - mV) ([3]; succinate, 10 μM): 149.0 ± 11.2 mV
